Each structure is given as a SMILES string. Calls of active or inactive are those of the source. Rule as the data show it: actives have a measured IC50 and inactives only a lower limit.

In the assay the target is Envelope glycoprotein gp160 (Human immunodeficiency virus 1, UniProt Q6QLK5). Nature of the assay: cell-free HIV fusion peptide-binding blockers – biochemical, uHTS, fluorescence dequenching, […] (AID 1986).
Envelope glycoprotein gp160, sequence (Q6QLK5 whole entry, the tested form may be a part): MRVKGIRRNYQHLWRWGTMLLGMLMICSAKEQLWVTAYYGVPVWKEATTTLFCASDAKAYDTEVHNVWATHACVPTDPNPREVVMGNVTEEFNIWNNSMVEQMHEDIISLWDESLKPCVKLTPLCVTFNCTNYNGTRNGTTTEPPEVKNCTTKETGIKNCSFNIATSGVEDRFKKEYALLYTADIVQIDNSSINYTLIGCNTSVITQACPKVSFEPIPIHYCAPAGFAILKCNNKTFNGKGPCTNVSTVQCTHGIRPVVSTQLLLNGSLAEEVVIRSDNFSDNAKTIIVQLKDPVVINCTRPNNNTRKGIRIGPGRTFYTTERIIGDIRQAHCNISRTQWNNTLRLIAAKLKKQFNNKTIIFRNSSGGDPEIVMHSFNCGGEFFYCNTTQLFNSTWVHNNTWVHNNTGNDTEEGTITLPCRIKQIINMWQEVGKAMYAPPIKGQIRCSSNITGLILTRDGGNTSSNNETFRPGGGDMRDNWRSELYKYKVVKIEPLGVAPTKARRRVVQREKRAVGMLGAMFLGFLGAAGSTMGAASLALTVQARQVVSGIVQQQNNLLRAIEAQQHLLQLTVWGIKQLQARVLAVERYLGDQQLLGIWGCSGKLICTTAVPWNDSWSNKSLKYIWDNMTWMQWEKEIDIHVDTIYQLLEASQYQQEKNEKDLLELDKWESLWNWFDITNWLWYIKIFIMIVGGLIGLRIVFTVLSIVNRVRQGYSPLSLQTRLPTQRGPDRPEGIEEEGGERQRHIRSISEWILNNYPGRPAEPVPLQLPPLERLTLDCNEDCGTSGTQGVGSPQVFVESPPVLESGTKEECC
As a reminder, the IC50 is the concentration at which inhibition is half-maximal. In the case of `O=C(O)CSc1ncnc2c1sc1nc(-c3ccccc3)c3c(c12)CCC3`, the IC50 was 28 µM (active).
In the case of `O=C(O)COc1ccc(/C=C/C(=O)c2ccc(C3CCCCC3)cc2)cc1`, the IC50 is 17.7 µM (active).
Regarding `CS(=O)(=O)C1=NSC2=NC(=O)/C(=C\c3ccc(OS(=O)(=O)c4ccccc4)cc3)C(=N)N21`, the IC50 was 18.2 µM (active).
Take `COc1cc(/C=C2/SC(=S)N(CC(=O)O)C2=O)ccc1OCC(=O)Nc1ccc(C)c(C)c1`: the IC50 is 17.9 µM (active).
`COc1ccc(/N=C2\S/C(=C\c3ccc(OC(C)C(=O)O)c(OC)c3)C(=O)N2CCc2c[nH]c3ccccc23)cc1` (stereo not given): the IC50 was 18.9 µM (active).

The values above are taken from ChEMBL document CHEMBL1201862, “PubChem BioAssay data set” (2004).
